Test results reported in US20240199601A1, “QUINONE COMPOUND AND PHARMACEUTICAL USE THEREOF” (NANJING SHUPENG LIFE SCIENCE CO., LTD., priority 2021, published 2024).
Entries after “also recorded” stand apart in the source; their conditions may differ. Like-named read-outs stand apart in the source and are kept apart here.

How the values were obtained:
[1] = cited from earlier work
[2] = test system: AMPK; experiment: AMPK phosphorylation level in a variety of cells; type: cell-based; settings: 100 nM
[3] = beagles; cited from earlier work
[4] = test system: acetaldehyde; settings: 11.5 mg/kg body weight i.p. before ethanol by gavage; cited from earlier work
[5] = test system: inflammatory pain model (complete Freund's adjuvant); experiment: Inflammatory pain model (complete Freund's adjuvant), mechanical pain threshold; type: in vivo, SD rats; settings: for duration of the analgesic effect / analgesic effect 1.5 hours after oral administration: single oral dose (SP3101 20 mg/kg); for analgesic effect 1.5 hours after oral administration: mechanical pain threshold vs model group
Description: 4 SD rats with a body weight of 200-250 g were used as a blank control (NC), and normal saline was injected into the soles of the left feet of the rats. Inflammatory pain models of 18 rats were constructed, that is to say, 100 μL of a complete Freund's adjuvant was injected into soles of the left feet of the rats, mechanical pain thresholds of the left feet were detected by an ALMEMO2490 data collector 24 hours later, 2 rats with a pain threshold of greater than 15 were abandoned, and the other 16 rats were randomly divided into 4 groups with 4 rats in each group and then administered with water as a positive control (PC), SP3101 (20 mg/kg), PQQ (20 mg/kg) and ibuprofen (25 mg/kg/day) by gavage, respectively.

[6] = test system: chronic constriction injury (CCI) model; settings: CCI model of rats; cited from earlier work
[7] = cited from earlier work; remark: listed apart in the source
[8] = test system: rats; settings: oral, cited from earlier work
[9] = test system: humans; settings: cited from earlier work
[10] = test system: autophagy related protein (LC3B); experiment: LC3B expression in RAW264.7 cells (protein hybridization); type: cell-based; settings: different concentrations, 24 hours
Description: (§1) RAW264.7 cells were inoculated into two six-well plates and enabled to grow to a density of about 90%, and SP3101 and SP3102 of different concentrations were added, respectively. 24 hours later, the cells were lysed with a radio immunoprecipitation assay (RIPA) lysis buffer, and the expression of proteins was detected by protein hybridization.
(§2) Phosphorylation of serine at the 127th site of AMPK is used as an activation marker. […] It can be seen that the compounds, represented by the SP3101 and the SP3102, of the present invention are used as an AMPK agonist.

[11] = test system: antioxidant transcription factor (Nrf2); experiment: Nrf2 expression in RAW264.7 cells (protein hybridization); type: cell-based; settings: different concentrations, 24 hours
Description: as §1, §2

[12] = test system: AMPK; experiment: AMPK agonist test in RAW264.7 cells (protein hybridization, p-AMPK); type: cell-based; settings: 0.1 μM, 24 hours
Description: as §1, §2

[13] = 20 mg/kg/day orally for three days, rats
[14] = human volunteers, 60 mg/day for one month

O=C(O)c1cc(C(=O)O)c2c(n1)C(=O)C(=O)c1cc(C(=O)O)[nH]c1-2 [PQQ, 4,5-dihydro-4,5-dioxo-1H-pyrrolo(2,3-f)quinone-2,7,9-tricarboxylic acid]
solubility in water [1]: slightly soluble in water
phosphorylation level of the AMPK [2]: significantly up-regulate
bioavailability [3]: about 12%
concentration of acetaldehyde vs control group [4]: much lower concentration of acetaldehyde
concentration of ethanol in the blood and liver vs control group [4]: no obvious differences
analgesic effect 1.5 hours after oral administration on the first day [5, 13]: No analgesic effect
analgesic effect on day 2/3/4/5/6/7 [5, 13]: obvious analgesic effect
analgesic effect [6]: had an analgesic effect
excreted by the kidney (through urine) ([7]; 24 hours after the administration): 80%
absorbed by the small intestines ([7]; after oral administration): about 60%
Adverse response ([8]; female rats, 14 days): Reversible; also recorded: Increased kidney; also recorded: Increased urine
Median lethal dose (LD50) ([8]; female rats, 14 days): 500-1,000 mg/kg/day
Adverse response ([8]; female rats, 91 days, 400 mg/kg/day): None
Adverse response ([8]; male rats, 14 days): None
Median lethal dose (LD50) ([8]; male rats, 14 days): 1,000-2,000 mg/kg/day
Adverse response ([8]; male rats, 91 days, 400 mg/kg/day): None
safe dose determined by the FDA (rarely adverse events) ([9]; healthy adults, body weight about 60 kg, every day): 240 mg
adverse responses [9, 14]: no adverse responses
changes of kidney injury markers [9, 14]: no changes of kidney injury markers

CC(=O)Oc1cc(C(=O)O)c2c(n1)C(=O)C(=O)c1cc[nH]c1-2 [SP3102, 7-acetoxy-4,5-dioxo-4,5-dihydro-1H-pyrrolo[2,3-f]quinone-9-carboxylic acid]
expression of autophagy related protein (LC3B) [10]: also increased
phosphorylation level of the AMPK [2]: significantly up-regulate
expression of antioxidant transcription factor (Nrf2) [11]: increased in a dose-dependent manner
duration of the analgesic effect ([5]; rats): 72 h
analgesic effect 1.5 hours after oral administration ([5]; rats): obvious analgesic effect
activation of AMPK (expression of p-AMPK) [12]: obviously activate the AMPK

COc1cc(C(=O)O)c2c(n1)C(=O)C(=O)c1cc[nH]c1-2 [SP3103, 7-methoxy-4,5-dioxo-4,5-dihydro-1H-pyrrolo[2,3-f]quinone-9-carboxylic acid]
duration of the analgesic effect ([5]; rats): 72 h
analgesic effect 1.5 hours after oral administration ([5]; rats): obvious analgesic effect

CC(C)Cc1ccc(C(C)C(=O)O)cc1 (stereo not drawn) [ibuprofen]
analgesic effect 1.5 hours after each oral administration ([5]; 25 mg/kg once a day orally for 3 days, day 1/2/3, rats): obvious analgesic effect
analgesic effect before administration ([5]; 25 mg/kg once a day orally, rats, data not shown): no analgesic effect
analgesic effect on the fourth day without administration ([5]; after 25 mg/kg once a day orally for 3 days, rats): no analgesic effect
